Patent US9944603B2, “Compounds and methods for the treatment of cystic fibrosis” (Flatley Discovery Lab, LLC, priority 2013, dated 2018)

Molecular target: T1, human F508del CFTR (Homo sapiens, UniProt P13569, DEL508-508)
T1 construct: expressed in transfected cells
Test: CFTR-YFP Assay, CFTR Corrector Protocol (YFP flux assay)
Format: cell-based
Details: for Emax: normalized to the positive control, read-out: EMAX (% Efficacy, EMAX normalized to the positive control)

T1 sequence (P13569 with tags, fused parts or gaps DEL508-508): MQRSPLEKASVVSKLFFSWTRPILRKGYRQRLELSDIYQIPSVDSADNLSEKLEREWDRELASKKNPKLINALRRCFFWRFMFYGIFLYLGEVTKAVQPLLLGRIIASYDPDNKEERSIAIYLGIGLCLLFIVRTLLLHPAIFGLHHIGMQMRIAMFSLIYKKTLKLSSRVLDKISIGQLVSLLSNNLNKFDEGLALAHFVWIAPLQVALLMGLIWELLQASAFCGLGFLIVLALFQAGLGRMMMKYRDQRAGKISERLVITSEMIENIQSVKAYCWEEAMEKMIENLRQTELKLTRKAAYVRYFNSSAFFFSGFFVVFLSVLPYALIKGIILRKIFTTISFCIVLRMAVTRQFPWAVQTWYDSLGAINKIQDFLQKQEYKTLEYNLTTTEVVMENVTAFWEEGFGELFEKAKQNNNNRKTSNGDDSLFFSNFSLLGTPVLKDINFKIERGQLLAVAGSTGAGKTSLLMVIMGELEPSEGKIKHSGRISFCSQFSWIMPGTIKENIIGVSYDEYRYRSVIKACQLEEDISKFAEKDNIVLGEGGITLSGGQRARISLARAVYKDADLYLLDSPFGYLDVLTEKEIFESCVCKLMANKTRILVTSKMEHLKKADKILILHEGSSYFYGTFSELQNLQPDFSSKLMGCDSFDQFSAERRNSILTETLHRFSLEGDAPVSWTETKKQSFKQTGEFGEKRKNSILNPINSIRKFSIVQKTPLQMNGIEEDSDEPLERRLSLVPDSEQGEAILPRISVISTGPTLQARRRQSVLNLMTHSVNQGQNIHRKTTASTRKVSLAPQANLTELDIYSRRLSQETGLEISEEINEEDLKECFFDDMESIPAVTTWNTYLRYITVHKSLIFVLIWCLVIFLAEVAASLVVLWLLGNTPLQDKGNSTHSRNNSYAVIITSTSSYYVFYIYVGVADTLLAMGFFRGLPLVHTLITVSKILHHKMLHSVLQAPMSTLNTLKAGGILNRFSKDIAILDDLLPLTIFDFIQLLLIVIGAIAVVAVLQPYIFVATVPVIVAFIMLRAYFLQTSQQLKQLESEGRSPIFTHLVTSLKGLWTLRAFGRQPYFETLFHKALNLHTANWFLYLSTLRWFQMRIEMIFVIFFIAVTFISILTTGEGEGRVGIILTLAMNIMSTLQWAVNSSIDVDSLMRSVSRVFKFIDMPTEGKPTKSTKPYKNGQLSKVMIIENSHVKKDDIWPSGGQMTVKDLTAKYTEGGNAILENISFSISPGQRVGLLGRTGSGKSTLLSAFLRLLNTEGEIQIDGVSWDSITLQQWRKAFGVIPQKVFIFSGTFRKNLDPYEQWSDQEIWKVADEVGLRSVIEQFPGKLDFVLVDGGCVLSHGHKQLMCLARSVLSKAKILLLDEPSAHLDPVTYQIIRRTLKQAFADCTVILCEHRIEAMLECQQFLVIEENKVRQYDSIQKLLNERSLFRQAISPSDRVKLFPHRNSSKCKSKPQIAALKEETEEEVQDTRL

| SMILES | EC50 [µM] | Emax [%] |
| --- | --- | --- |
| O=S(=O)(c1ccc2c(c1)OC(F)(F)O2)N1CCC(n2c(-c3ccc(F)nc3F)nc3cccnc32)CC1 [Example 106] | < 10 | 10 to 30 |
| CCc1ccc(S(=O)(=O)N2CCC(n3c(-c4ccncc4F)nc4ccc(OC)nc43)CC2)cc1 [Example 138] | > 20 | 30 to 80 |
| CC1Cc2cc(S(=O)(=O)N3CCC(n4c(-c5ccncc5F)nc5cccnc54)CC3)ccc2N1 (stereo not drawn) [Example 148] | < 10 | 10 to 30 |
| CCc1ccc(S(=O)(=O)N2CCC(N(C(=S)c3ccccc3Cl)c3ccc4c(c3)OC(F)(F)O4)CC2)cc1 [Example 212] | 10 to 20 | 30 to 80 |
| COc1ccc(S(=O)(=O)N2CCC(n3c(-c4ccccc4OC(C)=O)nc4cccnc43)CC2)cc1Cl [Example 80] | < 10 | 30 to 80 |
| CCc1ccc(S(=O)(=O)N2CCC(N(c3ccc(OC)cc3)S(=O)(=O)c3ccccc3Cl)CC2)cc1 [Example 236] | < 10 | 10 to 30 |
| CCc1ccc(S(=O)(=O)N2CCC(N(c3cnc(OC)cn3)S(=O)(=O)c3ccccc3Cl)CC2)cc1 [Example 245] | < 10 | 30 to 80 |
| Cc1cccc(N(C2CCN(S(=O)(=O)c3ccc4c(c3)OC(F)(F)O4)CC2)S(=O)(=O)c2ccccc2Cl)n1 [Example 191] | 10 to 20 | 10 to 30 |
| CCc1ccc(S(=O)(=O)N2CCC(n3c(-c4ccncc4F)nc4ccc(C)nc43)CC2)cc1 [Example 113] | < 10 | 30 to 80 |
| COc1ccc(S(=O)(=O)N2CCC(n3c(-c4ccccc4OC(F)(F)F)nc4cccnc43)CC2)cc1Cl [Example 76] | < 10 | 30 to 80 |
| CCc1ccc(S(=O)(=O)N2CCC(n3c(-c4ccc(F)nc4F)nc4cccnc43)CC2)cc1 [Example 111] | < 10 | 30 to 80 |
| Cc1ccc(S(=O)(=O)N2CCC(n3c(-c4ccccc4Cl)nc4cccnc43)CC2)cc1 [Example 59] | < 10 | 30 to 80 |
| CCc1ccc(S(=O)(=O)N2CCC(N(c3cccc(OC)c3)S(=O)(=O)c3ccccc3Cl)CC2)cc1 [Example 246] | 10 to 20 | 30 to 80 |
| COc1ccc(S(=O)(=O)N2CCC(n3c(-c4ccccc4C(F)(F)F)nc4cccnc43)CC2)cc1Cl [Example 49] | < 10 | 30 to 80 |
| CCc1ccc(S(=O)(=O)N2CCC(N(c3ccccn3)S(=O)(=O)c3ccccc3)CC2)cc1 [Example 181] | < 10 | 30 to 80 |
| COc1ccc(S(=O)(=O)N2CCC(n3c(-c4ncc[nH]4)nc4cccnc43)CC2)cc1Cl [Example 75] | 10 to 20 | 30 to 80 |
| O=S(=O)(c1ccc2c(c1)OC(F)(F)O2)N1CCC(n2c(-c3ccccc3)cc3cccnc32)CC1 [Example 99] | < 10 | 30 to 80 |
| Cc1ccc2nc(-c3ccccc3)n(C3CCN(S(=O)(=O)c4ccc5c(c4)OCO5)CC3)c2n1 [Example 62] | < 10 | 30 to 80 |
| Cc1cc2cc(S(=O)(=O)N3CCC(n4c(-c5ccncn5)nc5cccnc54)CC3)ccc2[nH]1 [Example 147] | < 10 | 10 to 30 |
| O=S(=O)(c1ccc2c(c1)OC(F)(F)O2)N1CCC(n2c(-c3ccncc3Cl)nc3ncccc32)CC1 [Example 40] | < 10 | 30 to 80 |
| CC(=O)N1c2ccc(S(=O)(=O)N3CCC(n4c(-c5ccncn5)nc5cccnc54)CC3)cc2CC1C (stereo not drawn) [Example 152] | 10 to 20 | 10 to 30 |
| COc1ccc(S(=O)(=O)N2CCC(N(C(=O)c3ccccc3Cl)c3ccccn3)CC2)cc1Cl [Example 198] | < 10 | 10 to 30 |
| O=S(=O)(c1ccc2c(c1)OCO2)N1CCC(n2c(-c3ccc(F)cc3F)nc3cccnc32)CC1 [Example 108] | < 10 | 30 to 80 |
| CCc1ccc(S(=O)(=O)N2CCC(N(c3cccc(C)c3)S(=O)(=O)c3ccccc3Cl)CC2)cc1 [Example 238] | < 10 | 30 to 80 |
